Each structure is given as a SMILES string.

Data on 18 compounds can be found in patent US11591341B2 (ALIGOS THERAPEUTICS, INC., priority 2019, dated 2023).

The test system of the assay is HBV. Description: HBV-DNA Antiviral Assay Using HepG2.117 Cells (intracellular HBV DNA by qPCR). The class given is cell-based, hepatitis B virus (genotype D). Conditions: Hepatitis B virus, HepG2.117. The method in brief:
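Endpoint: qPCR copy number of intracellular HBV DNA after 3-day compound exposure, with inhibition set relative to the 2% DMSO control. The cells were doxycycline-free HepG2.117 carrying a Tet-off genotype D genome, dosed at nine 4-fold dilutions. A duplicate plate gave ATP-based viability (CC50).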
The compound `COc1ccc(-n2c(C(=O)NCc3ccnnc3)c3n(c2=O)CCN(C(=O)c2ccc(Cl)c(Cl)c2)C3)cc1` [Example 53, 7-(3,4-dichlorobenzoyl)-2-(4-methoxyphenyl)-3-oxo-N-(pyridazin-4-ylmethyl)-6,8-dihydro-5H-imidazo[1,5-a]pyrazine-1-carboxamide] had an EC50 of over 5000 nM.
Compound `COc1ccc(CNC(=O)c2c3n(c(=O)n2-c2ccccc2)CCN(C(=O)c2ccc(Br)c(Cl)c2)C3)c(C)c1` [Example 39, 7-(4-bromo-3-chloro-benzoyl)-N-[(4-methoxy-2-methyl-phenyl)methyl]-3-oxo-2-phenyl-6,8-dihydro-5H-imidazo[1,5-a]pyrazine-1-carboxamide] showed a 50% effective concentration (EC50) of 100 to 500 nM.
The compound `COc1ccc(-n2c(C(=O)NCc3ccccc3OC)c3n(c2=O)CCN(C(=O)c2ccc(Cl)c(Cl)c2)C3)cc1` [Example 115, 7-(3,4-dichlorobenzoyl)-2-(4-methoxyphenyl)-N-[(2-methoxyphenyl)methyl]-3-oxo-6,8-dihydro-5H-imidazo[1,5-a]pyrazine-1-carboxamide] gave a concentration for a half-maximal effect (EC50) of 100 to 500 nM.
Consider `O=C(c1ccc(Br)c(Cl)c1)N1CCn2c(c3n(c2=O)CC2(COC2)CN(Cc2ccccc2)C3=O)C1` [Example 239, 13-benzyl-4-(4-bromo-3-chloro-benzoyl)spiro[4,7,9,13-tetrazatricyclo[7.5.0.0 2,7]tetradec-1-ene-11,3′-oxetane]-8,14-dione], for which the concentration for a half-maximal effect (EC50) was in the range of 500 to 5000 nM.
Compound `CC(Oc1ccc(CNC(=O)c2c3n(c(=O)n2-c2ccc(OC4CC4)cc2)CCN(C(=O)c2ccc(Br)c(Cl)c2)C3)c(F)c1)C(N)=O` (racemic) [Example 394, 7-(4-bromo-3-chloro-benzoyl)-2-[4-(cyclopropoxy)phenyl]-N-[[2-fluoro-4-[rac-(1S)-2-amino-1-methyl-2-oxo-ethoxy]phenyl]methyl]-3-oxo-6,8-dihydro-5H-imidazo[1,5-a]pyrazine-1-carboxamide] yielded an EC50 of 100 to 500 nM.
The compound `COc1ccc(-n2c(C(=O)NCc3ccc(C#N)cc3)c3n(c2=O)CCN(C(=O)c2ccc(Cl)c(Cl)c2)C3)cc1` [Example 84, N-[(4-cyanophenyl)methyl]-7-(3,4-dichlorobenzoyl)-2-(4-methoxyphenyl)-3-oxo-6,8-dihydro-5H-imidazo[1,5-a]pyrazine-1-carboxamide] showed a 50% effective concentration (EC50) of over 5000 nM.
In the case of `NC(=O)COc1ccc(CNC(=O)c2c3n(c(=O)n2-c2ccc(OCC(F)(F)F)cc2)CCN(C(=O)c2ccc(Br)c(Cl)c2)C3)c(-n2cccn2)c1` [Example 328, N-[[4-(2-amino-2-oxo-ethoxy)-2-pyrazol-1-yl-phenyl]methyl]-7-(4-bromo-3-chloro-benzoyl)-3-oxo-2-[4-(2,2,2-trifluoroethoxy)phenyl]-6,8-dihydro-5H-imidazo[1,5-a]pyrazine-1-carboxamide], the half-maximal effective concentration (EC50) lay in the range of 500 to 5000 nM.
`COc1ccc(-n2c(-c3ccccn3)c3n(c2=O)CCN(C(=O)c2ccc(Br)c(Cl)c2)C3)cc1` [Example 275, 7-(4-bromo-3-chloro-benzoyl)-2-(4-methoxyphenyl)-1-(2-pyridyl)-6,8-dihydro-5H-imidazo[1,5-a]pyrazin-3-one] came in with an EC50 of over 5000 nM.
`C[C@@H]1Cn2c(c(C(=O)NCc3ccccc3-n3cncn3)n(-c3ccc(OC4CC4)cc3)c2=O)CN1C(=O)c1ccc(Br)c(Cl)c1` (stereo in doubt) [Example 447, rac-(6R)-7-(4-bromo-3-chloro-benzoyl)-2-[4-(cyclopropoxy)phenyl]-6-methyl-3-oxo-N-[[2-(1,2,4-triazol-1-yl)phenyl]methyl]-6,8-dihydro-5H-imidazo[1,5-a]pyrazine-1-carboxamide] registered an EC50 of 100 to 500 nM.
In the case of `COc1ccc(-n2c(C(=O)NCc3ccccc3F)c3n(c2=O)CCN(C(=O)c2ccc(Br)c(Cl)c2)C3)cc1` [Example 181, 7-(4-bromo-3-chloro-benzoyl)-N-[(2-fluorophenyl)methyl]-2-(4-methoxyphenyl)-3-oxo-6,8-dihydro-5H-imidazo[1,5-a]pyrazine-1-carboxamide], the EC50 was in the range of 100 to 500 nM.
`COc1ccc(-n2c(C(=O)NCc3cccc(C#N)c3)c3n(c2=O)CCN(C(=O)c2ccc(Br)c(Cl)c2)C3)cc1` [Example 62, 7-(4-bromo-3-chloro-benzoyl)-N-[(3-cyanophenyl)methyl]-2-(4-methoxyphenyl)-3-oxo-6,8-dihydro-5H-imidazo[1,5-a]pyrazine-1-carboxamide]: the concentration giving a half-maximal response (EC50) is 500 to 5000 nM.
Turning to `N#CCOc1ccc(CNC(=O)c2c3n(c(=O)n2-c2ccc(OC4CC4)cc2)CCN(C(=O)c2ccc(Br)c(Cl)c2)C3)c(F)c1` [Example 323, 7-(4-bromo-3-chloro-benzoyl)-N-[[4-(cyanomethoxy)-2-fluoro-phenyl]methyl]-2-[4-(cyclopropoxy)phenyl]-3-oxo-6,8-dihydro-5H-imidazo[1,5-a]pyrazine-1-carboxamide], the concentration for a half-maximal effect (EC50) lay within 100 to 500 nM.
The figure for `O=C(NCc1ccccc1)c1c2n(c(=O)n1-c1ccc3c(c1)OCO3)CCN(C(=O)c1ccc(Cl)c(Cl)c1)C2` [Example 88, 2-(1,3-benzodioxol-5-yl)-N-benzyl-7-(3,4-dichlorobenzoyl)-3-oxo-6,8-dihydro-5H-imidazo[1,5-a]pyrazine-1-carboxamide] is 500 to 5000 nM; for `O=C(NCc1ccccc1)c1c2n(c(=O)n1-c1cccc(F)c1)CCN(C(=O)c1ccc(Br)c(Cl)c1)C2` [Example 23, N-benzyl-7-(4-bromo-3-chloro-benzoyl)-2-(3-fluorophenyl)-3-oxo-6,8-dihydro-5H-imidazo[1,5-a]pyrazine-1-carboxamide] it is 500 to 5000 nM; for `C[C@@H](Oc1ccc(-n2c(C(=O)NCc3ccccc3)c3n(c2=O)CCN(C(=O)c2ccc(Br)c(Cl)c2)C3)cc1)C(F)(F)F` (stereo in doubt) [Example 282, N-benzyl-7-(4-bromo-3-chloro-benozyl)-3-oxo-2-[4-[rac-(1R)-2,2,2-trifluoro-1-methyl-ethoxy]phenyl]-6,8-dihydro-5H-imidazo[1,5-a]pyrazine-1-carboxamide] it is 500 to 5000 nM.
For `C[C@@H](Oc1ccc([C@@H](C)NC(=O)c2c3n(c(=O)n2-c2ccc(OCC(F)(F)F)cc2)CCN(C(=O)c2ccc(Br)c(Cl)c2)C3)c(F)c1)C(N)=O` (stereo in doubt) [Example 359, 7-(4-bromo-3-chloro-benzoyl)-3-oxo-N-[rac-(1R)-1-[2-fluoro-4-[rac-(1R)-2-amino-1-methyl-2-oxo-ethoxy]phenyl]ethyl]-2-[4-(2,2,2-trifluoroethoxy)phenyl]-6,8-dihydro-5H-imidazo[1,5-a]pyrazine-1-carboxamide], the half-maximal effective concentration (EC50) lay within 500 to 5000 nM.
In turn, `CC(C)COc1ccc(-n2c(C(=O)NCc3ccccc3)c3n(c2=O)CCN(C(=O)c2ccc(Br)c(Cl)c2)C3)cc1` [Example 272, N-benzyl-7-(4-bromo-3-chloro-benzoyl)-2-(4-isobutoxyphenyl)-3-oxo-6,8-dihydro-5H-imidazo[1,5-a]pyrazine-1-carboxamide] had a half-maximal effective concentration (EC50) of 100 to 500 nM.
In the case of `C[C@H]1Cn2c(c(C(=O)NCc3ccccc3-n3cccn3)n(-c3ccc(OC4CC4)cc3)c2=O)CN1C(=O)c1ccc(Br)c(Cl)c1` (stereo in doubt) [Example 438, rac-(6S)-7-(4-bromo-3-chloro-benzoyl)-2-[4-(cyclopropoxy)phenyl]-6-methyl-3-oxo-N-[(2-pyrazol-1-ylphenyl)methyl]-6,8-dihydro-5H-imidazo[1,5-a]pyrazine-1-carboxamide], the concentration for a half-maximal effect (EC50) is under 100 nM.
